Read-outs that look alike come from different tables or passages of the source.
Legend:
CYP2C9 = molecular target: T1, CYP2C9 (Homo sapiens, UniProt P11712); test: Time-dependent inhibition of CYP2C9 in human liver microsomes; type: in vitro ADME; conditions: for (% Activity NADPH T0)/(% Activity NADPH T30): fold change; for activity at 30 min, 25 µM / activity at 0 min, 25 µM / activity at 30 min, 50 µM / activity at 0 min, 50 µM: pooled human liver microsomes, human liver microsomes; for activity at 30 min, 25 µM / activity at 30 min, 50 µM: after 30 minutes incubation, read-out: % Activity NADPH T30; for activity at 0 min, 25 µM / activity at 0 min, 50 µM: time zero, read-out: % Activity NADPH T0
T1 construct: Pooled human microsomes and selective CYP probe substrates were used; from tissue; host or cells: pooled human liver microsomes
T1 sequence (P11712 whole entry): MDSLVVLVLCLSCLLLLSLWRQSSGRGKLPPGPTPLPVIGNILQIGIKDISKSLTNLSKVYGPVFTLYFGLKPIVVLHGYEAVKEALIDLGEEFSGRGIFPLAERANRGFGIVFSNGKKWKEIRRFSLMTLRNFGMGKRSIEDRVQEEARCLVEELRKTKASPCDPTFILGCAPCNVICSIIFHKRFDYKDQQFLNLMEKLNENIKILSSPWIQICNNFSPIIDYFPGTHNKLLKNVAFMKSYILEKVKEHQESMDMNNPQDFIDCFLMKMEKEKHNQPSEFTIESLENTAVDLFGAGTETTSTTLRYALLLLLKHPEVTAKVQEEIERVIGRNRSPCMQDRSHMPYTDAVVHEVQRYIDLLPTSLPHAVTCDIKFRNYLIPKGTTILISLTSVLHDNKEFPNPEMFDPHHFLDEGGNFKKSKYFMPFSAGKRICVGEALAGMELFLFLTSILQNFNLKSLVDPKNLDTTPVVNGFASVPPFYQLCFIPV
Protocol: (§1) An assessment of the time-dependent Inhibitory Potential of the test compounds against Principal Human Cytochrome P450 Isozymes using Human Liver Microsomes was also carried out using standard methods (Grimm et al, Drug Metab. Dispos., July; 37(7):1355-70. doi: 10.1124/dmd.109.026716, 2009). Pooled human microsomes and selective CYP probe substrates were used for in vitro assessment of test compounds at 25 and 50 μM as time-dependent inhibitors of […] human hepatic cytochrome P450 isozymes (CYP1A2, 2B6, 2C9, 2C19, 2D6, and 3A4). LC-MS/MS was used to quantify metabolite formation. The inhibition of each P450 enzyme in human liver microsomes was measured as the percentage decrease in the activity of marker metabolite formation as measured by LC-MS/MS compared to non-inhibited controls (=100% activity) at time zero and after 30 minutes incubation. The occurrence of any time dependent inhibition was then expressed as the fold change in enzyme activity at time zero relative to the activity after 30 minutes incubation.

[1] = test system: bovine cardiac myofibrils; test: Myofibril assay (ATPase activity of skinned bovine cardiac myofibrils, PK/LDH-coupled); type: biochemical; conditions: inhibition of steady-state ATPase of bovine cardiac myofibrils; CaCl2 for 50% or 75% activation
Summary of the method: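 Steady-state ATPase of detergent-skinned bovine left-ventricular myofibrils (1 mg/mL), PK/LDH-coupled NADH read at 340 nm, in PIPES/MgCl2 buffer pH 6.8 with 50 μM ATP, 0.6 mM EGTA and CaCl2 set for 50% or 75% activation. Inhibition of activity measured.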

CYP2C19 = molecular target: T2, CYP2C19 (Homo sapiens, UniProt P33261); test: Time-dependent inhibition of CYP2C19 in human liver microsomes; type: in vitro ADME; conditions: for (% Activity NADPH T0)/(% Activity NADPH T30): fold change; for activity at 30 min, 25 µM / activity at 0 min, 25 µM / activity at 30 min, 50 µM / activity at 0 min, 50 µM: pooled human liver microsomes, human liver microsomes; for activity at 30 min, 25 µM / activity at 30 min, 50 µM: after 30 minutes incubation, read-out: % Activity NADPH T30; for activity at 0 min, 25 µM / activity at 0 min, 50 µM: time zero, read-out: % Activity NADPH T0
T2 construct: Pooled human microsomes and selective CYP probe substrates were used; from tissue; host or cells: pooled human liver microsomes
T2 sequence (P33261 whole entry): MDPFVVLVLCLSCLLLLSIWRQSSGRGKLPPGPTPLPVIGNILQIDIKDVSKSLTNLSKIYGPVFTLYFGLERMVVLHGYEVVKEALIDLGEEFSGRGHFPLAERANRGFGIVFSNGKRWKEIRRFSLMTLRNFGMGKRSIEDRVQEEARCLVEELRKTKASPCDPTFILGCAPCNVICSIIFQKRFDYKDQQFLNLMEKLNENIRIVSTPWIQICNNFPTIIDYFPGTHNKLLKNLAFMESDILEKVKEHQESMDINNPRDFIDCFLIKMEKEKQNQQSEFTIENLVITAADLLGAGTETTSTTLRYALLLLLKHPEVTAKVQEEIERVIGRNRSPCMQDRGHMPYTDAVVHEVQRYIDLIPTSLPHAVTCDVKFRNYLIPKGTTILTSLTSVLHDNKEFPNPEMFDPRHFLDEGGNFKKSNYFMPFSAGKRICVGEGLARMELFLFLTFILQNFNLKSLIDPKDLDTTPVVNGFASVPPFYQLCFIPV
Protocol: as §1

CYP3A4 = molecular target: T3, CYP3A4 (Homo sapiens, UniProt P08684); test: Time-dependent inhibition of CYP3A4 in human liver microsomes (testosterone and midazolam probes); type: in vitro ADME; conditions: for (% Activity NADPH T0)/(% Activity NADPH T30): fold change; for activity at 30 min, 25 µM / activity at 30 min, 50 µM: human, after 30 minutes incubation, read-out: % Activity NADPH T30; for activity at 30 min, 25 µM / activity at 30 min, 50 µM / activity at 0 min, 25 µM / activity at 0 min, 50 µM: pooled human liver microsomes; for activity at 0 min, 25 µM / activity at 0 min, 50 µM: human liver microsomes, time zero, read-out: % Activity NADPH T0
T3 construct: Pooled human microsomes and selective CYP probe substrates were used; from tissue; host or cells: pooled human liver microsomes
T3 sequence (P08684 whole entry): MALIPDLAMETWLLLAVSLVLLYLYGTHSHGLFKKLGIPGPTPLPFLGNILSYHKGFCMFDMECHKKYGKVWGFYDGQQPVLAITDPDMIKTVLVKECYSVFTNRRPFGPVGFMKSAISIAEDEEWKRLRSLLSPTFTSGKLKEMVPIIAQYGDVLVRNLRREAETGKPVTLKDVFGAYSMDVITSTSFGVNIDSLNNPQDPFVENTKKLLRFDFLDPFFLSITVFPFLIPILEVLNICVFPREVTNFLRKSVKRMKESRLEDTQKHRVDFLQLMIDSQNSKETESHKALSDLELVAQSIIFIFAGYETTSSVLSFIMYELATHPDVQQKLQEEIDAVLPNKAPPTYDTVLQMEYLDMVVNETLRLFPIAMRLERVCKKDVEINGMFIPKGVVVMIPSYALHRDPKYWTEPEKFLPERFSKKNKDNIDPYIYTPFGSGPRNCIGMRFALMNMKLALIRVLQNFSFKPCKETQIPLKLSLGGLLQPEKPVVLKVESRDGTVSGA
Protocol: as §1

[2] = Monkey cassette dosing pharmacokinetics; type: in vivo; conditions: IV; for clearance / Vd: male, plasma; for Vd: read-out: Vss
CYP2B6 = molecular target: T4, CYP2B6 (Homo sapiens, UniProt P20813); test: Time-dependent inhibition of CYP2B6 in human liver microsomes; type: in vitro ADME; conditions: for (% Activity NADPH T0)/(% Activity NADPH T30): fold change; for activity at 30 min, 25 µM / activity at 0 min, 25 µM / activity at 30 min, 50 µM / activity at 0 min, 50 µM: pooled human liver microsomes, human liver microsomes; for activity at 30 min, 25 µM / activity at 30 min, 50 µM: after 30 minutes incubation, read-out: % Activity NADPH T30; for activity at 0 min, 25 µM / activity at 0 min, 50 µM: time zero, read-out: % Activity NADPH T0
T4 construct: Pooled human microsomes and selective CYP probe substrates were used; from tissue; host or cells: pooled human liver microsomes
T4 sequence (P20813 1-491): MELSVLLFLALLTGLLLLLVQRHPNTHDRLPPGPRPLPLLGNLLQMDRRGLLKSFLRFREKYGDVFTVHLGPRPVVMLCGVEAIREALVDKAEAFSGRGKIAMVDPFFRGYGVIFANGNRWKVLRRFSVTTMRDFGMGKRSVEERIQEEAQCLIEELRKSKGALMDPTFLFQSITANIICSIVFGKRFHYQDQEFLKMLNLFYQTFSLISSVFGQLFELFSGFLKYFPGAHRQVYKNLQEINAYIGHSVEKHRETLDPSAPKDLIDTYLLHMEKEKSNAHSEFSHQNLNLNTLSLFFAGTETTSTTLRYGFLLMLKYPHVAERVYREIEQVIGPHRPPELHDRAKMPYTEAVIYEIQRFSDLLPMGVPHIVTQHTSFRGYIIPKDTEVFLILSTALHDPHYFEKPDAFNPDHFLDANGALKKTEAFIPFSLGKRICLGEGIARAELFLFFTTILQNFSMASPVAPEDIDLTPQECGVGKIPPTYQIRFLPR
Protocol: as §1

[3] = CYP3A4-M (midazolam probe substrate), 25 μM
[4] = CYP3A4-M (midazolam probe substrate), 50 μM
[5] = CYP3A4-T (testosterone probe substrate), 25 μM
[6] = CYP3A4-T (testosterone probe substrate), 50 μM

SMILES | (% Activity NADPH T0)/(% Activity NADPH T30) (CYP2C9; CYP2C9, 25 μM) | (% Activity NADPH T0)/(% Activity NADPH T30) (CYP2C9; CYP2C9, 50 μM) | activity at 30 min, 25 µM (CYP2C9; CYP2C9, 25 μM) | activity at 0 min, 25 µM (CYP2C9; CYP2C9, 25 μM) | activity at 30 min, 50 µM (CYP2C9; CYP2C9, 50 μM) | activity at 0 min, 50 µM (CYP2C9; CYP2C9, 50 μM) | CDMF IC15 [1] | (% Activity NADPH T0)/(% Activity NADPH T30) (CYP2C19; CYP2C19, 25 μM) | (% Activity NADPH T0)/(% Activity NADPH T30) (CYP2C19; CYP2C19, 50 μM) | activity at 30 min, 25 µM (CYP2C19; CYP2C19, 25 μM) | activity at 0 min, 25 µM (CYP2C19; CYP2C19, 25 μM) | activity at 30 min, 50 µM (CYP2C19; CYP2C19, 50 μM) | activity at 0 min, 50 µM (CYP2C19; CYP2C19, 50 μM) | (% Activity NADPH T0)/(% Activity NADPH T30) (CYP3A4; [3]) | (% Activity NADPH T0)/(% Activity NADPH T30) (CYP3A4; [4]) | (% Activity NADPH T0)/(% Activity NADPH T30) (CYP3A4; [5]) | (% Activity NADPH T0)/(% Activity NADPH T30) (CYP3A4; [6]) | activity at 30 min, 25 µM (CYP3A4; [3]) | activity at 30 min, 50 µM (CYP3A4; [4]) | activity at 30 min, 25 µM (CYP3A4; [5]) | also measured
C[C@H]1CC[C@H](N2CC(=O)N(Cc3ccc(Cl)cc3)C3(CN(C(N)=O)C3)C2=O)CC1 [Compound 18, 5-(4-chlorobenzyl)-8-((1r,4r)-4-methylcyclohexyl)-6,9-dioxo-2,5,8-triazaspiro[3.5]nonane-2-carboxamide] | 0.9 | 1.2 | 47% | 44% | 27% | 32% | 1200 nM | 1.0 | 1.1 | 99% | 103% | 84% | 91% | 1.8 | 1.2 | 1.2 | 1.1 | 71% | 102% | 85% | activity at 30 min, 50 µM (CYP3A4; [6]): 75%; activity at 0 min, 25 µM (CYP3A4; [3]): 125%; activity at 0 min, 50 µM (CYP3A4; [4]): 126%; activity at 0 min, 25 µM (CYP3A4; [5]): 100%; activity at 0 min, 50 µM (CYP3A4; [6]): 85%; t l/2 [2]: 8.04 h; clearance [2]: 12.5 mL/min/kg; Vd [2]: 10.2 L/kg; (% Activity NADPH T0)/(% Activity NADPH T30) (CYP2B6; CYP2B6, 25 μM): 0.8; (% Activity NADPH T0)/(% Activity NADPH T30) (CYP2B6; CYP2B6, 50 μM): 0.9; activity at 30 min, 25 µM (CYP2B6; CYP2B6, 25 μM): 103%; activity at 0 min, 25 µM (CYP2B6; CYP2B6, 25 μM): 80%; activity at 30 min, 50 µM (CYP2B6; CYP2B6, 50 μM): 83%; activity at 0 min, 50 µM (CYP2B6; CYP2B6, 50 μM): 76%
CC(C)N1CC(=O)N(Cc2ccc(C(F)(F)F)cc2)C2(CN(c3cccnn3)C2)C1=O [Compound 13, 8-isopropyl-2-(pyridazin-3-yl)-5-(4-(trifluoromethyl)benzyl)-2,5,8-triazaspiro[3.5]nonane-6,9-dione] | 0.9 | 1.0 | 114% | 107% | 109% | 111% | 2000 nM | 1.0 | 0.9 | 108% | 108% | 119% | 113% | 1.0 | 0.7 | 1.0 | 0.9 | 88% | 97% | 77% | activity at 30 min, 50 µM (CYP3A4; [6]): 65%; activity at 0 min, 25 µM (CYP3A4; [3]): 87%; activity at 0 min, 50 µM (CYP3A4; [4]): 72%; activity at 0 min, 25 µM (CYP3A4; [5]): 74%; activity at 0 min, 50 µM (CYP3A4; [6]): 56%; t l/2 [2]: 1.83 h; clearance [2]: 21.4 mL/min/kg; Vd [2]: 3.15 L/kg; (% Activity NADPH T0)/(% Activity NADPH T30) (CYP2B6; CYP2B6, 25 μM): 0.9; (% Activity NADPH T0)/(% Activity NADPH T30) (CYP2B6; CYP2B6, 50 μM): 1.1; activity at 30 min, 25 µM (CYP2B6; CYP2B6, 25 μM): 116%; activity at 0 min, 25 µM (CYP2B6; CYP2B6, 25 μM): 102%; activity at 30 min, 50 µM (CYP2B6; CYP2B6, 50 μM): 81%; activity at 0 min, 50 µM (CYP2B6; CYP2B6, 50 μM): 90%
C[C@H]1CC[C@H](N2CC(=O)N(Cc3ccc(F)c(Cl)c3)C3(CN(C(N)=O)C3)C2=O)CC1 [Compound 7, 5-(3-chloro-4-fluorobenzyl)-8-((1r,4r)-4-methylcyclohexyl)-6,9-dioxo-2,5,8-triazaspiro[3.5]nonane-2-carboxamide] | 1.3 | 1.4 | 75% | 94% | 61% | 87% | 800 nM | 1.0 | 1.0 | 87% | 87% | 83% | 82% | 1.0 | 1.0 | 1.0 | 1.0 | 100% | 100% | 100% | (% Activity NADPH T0)/(% Activity NADPH T30) (CYP2C9; CYP2C9, 50 μM, listed as compound 7): 1.3; activity at 30 min, 50 µM (CYP3A4; [6]): 100%; activity at 0 min, 25 µM (CYP3A4; [3]): 100%; activity at 0 min, 50 µM (CYP3A4; [4]): 100%; activity at 0 min, 25 µM (CYP3A4; [5]): 100%; activity at 0 min, 50 µM (CYP3A4; [6]): 100%; t l/2 [2]: 12.5 h; clearance [2]: 10.2 mL/min/kg; Vd [2]: 9.12 L/kg; (% Activity NADPH T0)/(% Activity NADPH T30) (CYP2B6; CYP2B6, 25 μM): 0.9; (% Activity NADPH T0)/(% Activity NADPH T30) (CYP2B6; CYP2B6, 50 μM): 1.1; activity at 30 min, 25 µM (CYP2B6; CYP2B6, 25 μM): 74%; activity at 0 min, 25 µM (CYP2B6; CYP2B6, 25 μM): 70%; activity at 30 min, 50 µM (CYP2B6; CYP2B6, 50 μM): 70%; activity at 0 min, 50 µM (CYP2B6; CYP2B6, 50 μM): 78%
